Drawing on patent US7851474B2, “Dipiperazinyl ketones and related analogues” (Neurogen Corporation, priority 2005, dated 2010), this text covers inhibition for 14 compounds.

For the assay, the target named is T1, chimeric human H3 receptor (Homo sapiens, UniProt Q9Y5N1, E19D).
T1 construct: made in house; host or cells: Sf9 insect cells (baculovirus infection); P2 membrane preparation
As to the kind of experiment: Chimeric human H3 receptor screening GTP binding assay (inhibition of histamine-stimulated GTP-gamma35S binding, Example 8). Format: biochemical. As to conditions: 1 h, read-out: percent inhibition of agonist-induced GTP-gammaS binding to H3. Here is the method:
This Example illustrates a representative screening assay for evaluating inhibition of histamine-stimulated GTP-gamma^35S binding. Such GTP binding activity can be used to identify H3 antagonists and inverse agonists. A compound analyzed in this assay is referred to herein as a “test compound,” and the initial identification of antagonists and inverse agonists is performed using a test compound concentration of 4 μM.
Four independent baculoviral stocks (one directing the expression of the chimeric human H3 receptor and three directing the expression of each of the three subunits of a heterotrimeric G-protein) are used to infect a culture of Sf9 cells as described above. P2 membranes are prepared as described above, and are resuspended by Dounce homogenization (tight pestle) in GTP binding assay buffer (50 mM Tris pH 7.4, 120 mM NaCl, 5 mM MgCl2, 2 mM EGTA, 1 mg/ml BSA, 0.2 mg/ml bacitracin, 0.02 mg/ml aprotinin, 0.01 mg/ml saponin, 10 μM GDP) and added to assay tubes at a concentration of 35 μg protein/reaction tube. Non-radiolabeled test compounds are added to separate reactions at a concentration of 4 μM along with 1 μM histamine (agonist). Reactions are initiated by the addition of 125 pM GTP-gamma^35S with a final assay volume of 0.20 ml.
After a 60-min incubation at room temperature, reactions are terminated by vacuum filtration over GF/C filters (pre-soaked in 50 mM Tris pH 7.4, 120 mM NaCl plus 0.1% BSA) followed by washing with ice-cold buffer (50 mM Tris pH 7.4, 120 mM NaCl). The amount of receptor-bound (and thereby membrane-bound) GTP-gamma^35S is determined by measuring the bound radioactivity, preferably by liquid scintillation spectrometry of the washed filters. Non-specific binding is determined using 10 uM GTP-gammaS and typically represents less than 5 percent of total binding. After subtraction of non-specific binding, data is expressed as percent inhibition of 1 μM histamine signal.
Neutral antagonists are those test compounds that reduce the histamine-stimulated GTP binding activity towards, but not below, baseline levels. In contrast, in the absence of added histamine, inverse agonists reduce the GTP binding activity of the receptor-containing membranes below baseline. Any test compound that elevates GTP binding activity above baseline in the absence of added histamine in this assay is defined as having agonist activity.
Background: GTPγS is a poorly hydrolysed GTP analogue; its binding reports G protein activation.

[1] abbreviates: "+" in Ki of Table II, assay of Example 8.
Setting [2] is: Table II, "+" in the column headed Ki, assay of Example 8.
[3] abbreviates: assay described in Example 8, symbol + in column headed Ki of Table II.

Each structure is given as a SMILES string. Where two headings read alike, the source gives them in different places. A value given as a limit tells only on which side of the number the result lay.

T1 sequence (Q9Y5N1 with tags, fused parts or gaps E19D): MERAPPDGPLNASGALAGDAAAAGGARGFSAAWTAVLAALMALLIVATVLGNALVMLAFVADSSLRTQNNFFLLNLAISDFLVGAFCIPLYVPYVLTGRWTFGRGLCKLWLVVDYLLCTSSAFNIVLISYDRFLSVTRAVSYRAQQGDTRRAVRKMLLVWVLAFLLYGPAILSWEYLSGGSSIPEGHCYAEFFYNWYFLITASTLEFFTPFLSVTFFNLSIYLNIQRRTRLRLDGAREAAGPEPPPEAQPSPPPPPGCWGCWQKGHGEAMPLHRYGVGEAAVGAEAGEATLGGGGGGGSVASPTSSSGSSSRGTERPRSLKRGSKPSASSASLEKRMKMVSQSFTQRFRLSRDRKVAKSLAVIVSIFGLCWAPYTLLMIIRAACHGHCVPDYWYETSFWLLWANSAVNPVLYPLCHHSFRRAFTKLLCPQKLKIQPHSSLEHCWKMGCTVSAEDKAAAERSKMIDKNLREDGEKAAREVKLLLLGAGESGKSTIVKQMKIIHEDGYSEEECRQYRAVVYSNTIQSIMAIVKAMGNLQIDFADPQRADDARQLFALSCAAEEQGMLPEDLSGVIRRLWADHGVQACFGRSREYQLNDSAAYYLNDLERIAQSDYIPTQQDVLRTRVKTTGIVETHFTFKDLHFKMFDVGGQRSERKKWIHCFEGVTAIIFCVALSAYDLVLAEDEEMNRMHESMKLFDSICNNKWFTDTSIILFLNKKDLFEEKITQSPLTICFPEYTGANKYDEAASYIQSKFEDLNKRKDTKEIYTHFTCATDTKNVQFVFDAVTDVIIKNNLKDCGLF

One may read the inhibition as the change of the read-out against control, counted positive when it falls. On to `CC(C)(C)c1ccc(Oc2ncccc2C(=O)N2CCN(CC(=O)N3CCN(C4CCC4)CC3)CC2)cc1` [Compound 474, 1-{[2-(4-tert-butylphenoxy)pyridin-3-yl]carbonyl}-4-[2-(4-cyclobutylpiperazin-1-yl)-2-oxoethyl]piperazine], for which, under setting [1], the inhibition at 4 µM is > 90%.

Turning to `COc1c(Cl)cc(Cl)c(OC)c1C(=O)N1CCN(CC(=O)N2CCN(C3CCC3)CC2)CC1` [Compound 737, 1-cyclobutyl-4-{[4-(3,5-dichloro-2,6-dimethoxybenzoyl)piperazin-1-yl]acetyl}piperazine], the inhibition at 4 µM under setting [2] is > 90%.

On to `O=C(CN1CCN(C(=O)c2ccccc2Oc2ccccc2)CC1)N1CCN(C2CCC2)CC1` [Compound 718, 1-cyclobutyl-4-{[4-(2-phenoxybenzoyl)piperazin-1-yl]acetyl}piperazine], for which the inhibition at 4 µM under setting [2] is > 90%.

Regarding `COc1ccccc1OCC(=O)N1CCN(CC(=O)N2CCN(C3CCC3)CC2)CC1` [Compound 535, 1-cyclobutyl-4-({4-[(2-methoxyphenoxy)acetyl]piperazin-1-yl}acetyl)piperazine], under setting [1], the inhibition at 4 µM was > 90%.

In the case of `Cc1oc(-c2ccccc2)cc1C(=O)N1CCN(CC(=O)N2CCN(C3CCC3)CC2)CC1` [Compound 713, 1-cyclobutyl-4-{[4-(2-methyl-5-phenyl-3-furoyl)piperazin-1-yl]acetyl}piperazine], the inhibition at 4 µM under setting [2] is > 90%.

Take `O=C(CN1CCN(C(=O)c2cc(C(F)(F)F)ccc2Cl)CC1)N1CCN(C2CCC2)CC1` [Compound 452, 1-[2-chloro-5-(trifluoromethyl)benzoyl]-4-[2-(4-cyclobutylpiperazin-1-yl)-2-oxoethyl]piperazine]: the inhibition at 4 µM under setting [1] was > 90%.

Turning to `COc1cccc(CC(=O)N2CCN(CC(=O)N3CCN(C4CCC4)CC3)CC2)c1` [Compound 552, 1-cyclobutyl-4-({4-[(3-methoxyphenyl)acetyl]piperazin-1-yl}acetyl)piperazine], under setting [1], the inhibition at 4 µM is > 90%.

Regarding `O=C(CN1CCN(C(=O)c2ccccc2-c2ccccc2)CC1)N1CCN(C2CCC2)CC1` [Compound 374, 1-(biphenyl-2-ylcarbonyl)-4-[2-(4-cyclobutylpiperazin-1-yl)-2-oxoethyl]piperazine], the inhibition at 4 µM under setting [3] is > 90%.

As to `CC(Oc1ccc(Cl)cc1)C(=O)N1CCN(CC(=O)N2CCN(C3CCC3)CC2)CC1` (centres unmarked) [Compound 420, 1-[2-(4-chlorophenoxy)propanoyl]-4-[2-(4-cyclobutylpiperazin-1-yl)-2-oxoethyl]piperazine], the inhibition at 4 µM under setting [3] is > 90%.

On to `COc1ccc(Cl)c(OC)c1C(=O)N1CCN(CC(=O)N2CCN(C3CCC3)CC2)CC1` [Compound 294, 1-(3-chloro-2,6-dimethoxybenzoyl)-4-[2-(4-cyclobutylpiperazin-1-yl)-2-oxoethyl]piperazine], for which the inhibition at 4 µM under setting [3] was > 90%.

On to `O=C(Cc1ccc(C(F)(F)F)cc1)N1CCN(CC(=O)N2CCN(C3CCC3)CC2)CC1` [Compound 631, 1-cyclobutyl-4-[(4-{[4-(trifluoromethyl)phenyl]acetyl}piperazin-1-yl)acetyl]piperazine], for which, under setting [2], the inhibition at 4 µM was > 90%.

Consider `COc1ccc(/C=C/C(=O)N2CCN(CC(=O)N3CCN(C4CCC4)CC3)CC2)c(OC)c1OC` [Compound 515, 1-cyclobutyl-4-({4-[(2E)-3-(2,3,4-trimethoxyphenyl)prop-2-enoyl]piperazin-1-yl}acetyl)piperazine], for which the inhibition at 4 µM under setting [1] is > 90%.

As to `Cc1ccsc1C(=O)N1CCN(CC(=O)N2CCN(C3CCC3)CC2)CC1` [Compound 553, 1-cyclobutyl-4-({4-[(3-methyl-2-thienyl)carbonyl]piperazin-1-yl}acetyl)piperazine], the inhibition at 4 µM under setting [1] is > 90%.

For the compound `O=C(COc1cccc(Cl)c1)N1CCN(CC(=O)N2CCN(C3CCC3)CC2)CC1` [Compound 399, 1-[(3-chlorophenoxy)acetyl]-4-[2-(4-cyclobutylpiperazin-1-yl)-2-oxoethyl]piperazine], the inhibition at 4 µM under setting [3] was > 90%.
